# In patent US20170266222A1, “MODULATION OF CHRFAM7A FOR ANTI-INFLAMMATORY THERAPIES” (THE REGENTS OF THE UNIVERSITY OF CALIFORNIA, priority 2016, published 2017):
# “Also recorded” adds a separate entry of the source.
# Columns and labels:
# CHRFAM7A gene expression = assay: qPCR of CHRFAM7A gene expression in gut epithelial cells treated with LPS; type: cell-based, human
# Method: (§1) All epithelial cancer cell lines were originally purchased from American Type Culture Collection and propagated as instructed. Normal human small intestine epithelial cells (FHs-Int-74) were also obtained from the ATCC (CCL-241). Cells were seeded at 2×10^6 in 6-well tissue culture plates the day before the experiment. As indicated, cells were either harvested directly for total RNA preparation, processed for transient transfection, or treated with LPS (CAT# L4391, Sigma) at 100 ng/ml for 3 hours. At the end of the incubation with LPS, cells were harvested and used for analyses of gene expression.
# (§2) Total RNA was prepared using RNeasy kit (Qiagen) and was quantitated using Nanodrop Spectrophotometer. One μg total RNA was reverse transcribed using iScript cDNA synthesis kit (BioRad) in a 20 μl reaction. Of the 20 μl cDNA, one μl was used for RT-PCR or real-time qPCR.
# (§3) RT-PCR was performed in a 50 μl reaction containing 45 μl PCR blue mix (Invitrogen), 1 μl of each primer (10 μM), 1 μl cDNA, and 2 μl water. The cycling conditions were: 94° C. for 4 minutes followed by 35 cycles of 94° C. for 30 seconds, 60° C. for 30 seconds, and 72° C. for 60 seconds and a final extension at 72° C. for 5 minutes. Ten μl of each PCR products were resolved on a 2% agarose gel and images were acquired using Alpha Innotech imaging system. Real-time qPCR was performed in a 25 μl reaction containing 12.5 μl 2×CYBR Green PCR Master Mix (BioRad), 0.5 μl of each primer (10 μM), 1 μl cDNA, and 10.5 μl water. PCR cycling conditions were: 95° C. for 10 minutes followed by 45 cycles of 94° C. for 25 seconds, 60° C. for 25 seconds, and 72° C. for 40 seconds. Primer efficiency for CHRFAM7A and CHRNA7 were 100% and 94% respectively. Expression of CHRNA7 and CHRFAM7A was normalized to that of GAPDH using ΔΔCt method.
# Primers for CHRFAM7A were designed to hybridize with the variant 1 transcript by selecting sequences that bridge CHRFAM7A and CHRNA7 and therefore unique to CHRFAM7A and not available in FAM7A or CHRNA7A alone: Sense: 5′-ATAGCTGCAAACTGCGATA-3′ (SEQ ID NO:11), Anti-sense: 5′-[…]-3′(SEQ ID NO:12).
# CHRNA7 gene expression = assay: qPCR of CHRNA7 gene expression in gut epithelial cells treated with LPS; type: cell-based, human; settings: 3 hours
# Method: as §1, §2, §3
# Primers for CHRNA7 were designed to hybridize with both variant 1 and 2 transcripts of CHRNA7 by selecting sequences present in CHRNA7 but absent from CHRFAM7A for amplification: Sense, 5′-acATGcgctgctcgccggga-3′ (SEQ ID NO:13), Anti-sense, 5′-[…]-3′ (SEQ ID NO:14).
# [1] = system: CHRFAM7A/CHRNA7 gene expression; assay: qRT-PCR ratio of CHRFAM7A to CHRNA7 in leukocyte cell lines treated with LPS; type: cell-based, human; settings: 100 ng/ml LPS, 3 hours
# Source text: All cell lines were originally purchased from ATCC and/or acquired through the UCSD Department of Surgery, Division of Trauma, Burns and Acute Care Surgery Cell Repository. Thawed cells were washed in RPMI culture media containing 10% FCS, the pellet reconstituted in culture media and cells plated into six-well tissue culture plates. All cells were washed 48 hrs later and allowed to grow to 90% confluence and propagated with trypsin digestion as needed. For transduction studies, cells were seeded at 2×10^6 in 6-well tissue culture plates the day before the experiment. As indicated in each experiment, cells were harvested directly from the culture dishes for total RNA preparation, processed for stable or transient transfection, or treated with 100 ng/ml LPS (CAT# L4391, Sigma) for 3 hours. At the end of incubations, cells were harvested, total RNA isolated and the cDNA generated (see below) used for analyses of gene expression.
# Total RNA was prepared from cell lysates using the RNeasy kit (Qiagen, San Diego Calif.) and was quantified using a Nanodrop Spectrophotometer. […]
# RT-PCR and Quantitative RT-PCR for CHRFAM7A and CHRNA7: RT-PCR was performed in a 50 μl reaction containing 45 μl PCR blue mix (Invitrogen), 1 μl of each primer (10 μM), 1 μl cDNA, and 2 μl water. […]
# CHRFAM7A promoter [2] = assay: CHRFAM7A promoter luciferase reporter in THP1 cells; type: cell-based, human; settings: THP1 cells pre-treated with 100 ng/ml LPS
# Source text: Analyses of the CHRFAM7A promoter: The putative CHRFAM7A promoter region spanning from −2363 to +22 relative to the open reading frame ATG start codon was amplified by PCR of genomic DNA isolated from HEK293 cells. The longest fragment was cloned into pGL4 promoter-less luciferase reporter plasmid (Promega) according to the manufacturers specifications and the resulting plasmid, pGL4-CHRFAM7A (˜2400) was confirmed by DNA sequencing and thereafter referred to f2400 to reflect the size of the fragment. […]
# The fragments generated were cloned into the pGL4 vector to create plasmids f1800, f1000, and f500, which were each sequenced to confirm their identity. These plasmids were then transiently transfected into THP1 cells as described below, and luciferase activity was analyzed 30 hours after transfection following the manufacturer's instructions (Promega). […]
# THP1 cells, cultured in RPMI1640 supplemented with 1× Glutamax and 1× Penicillin/Streptomycin, were seeded at 5×10^5 per well in a 24-well plate two hours before transfection. […] The lysate was spun down and 10 μl of the supernatant was used for luciferase assay on POLARstar Omega plate reader (BMG LABTECH). Luciferase activity normalized to protein concentration was expressed as fold changes over that of pGL4 transfected cells.
# CHRFAM7A promoter [3] = assay: CHRFAM7A promoter luciferase reporter in FHs cells; type: cell-based, human; settings: LPS 100 ng/ml
# Source text: The putative CHRFAM7A promoter region spanning from −2363 to +22 relative to the open reading frame ATG start codon was amplified by PCR of genomic DNA isolated from HEK293 cells. The longest fragment was cloned into pGL4 promoter-less luciferase reporter plasmid (Promega) according to the manufacturers specifications and the resulting plasmid, pGL4-CHRFAM7A (2400) was confirmed by DNA sequencing and thereafter referred to F2400 to reflect the size of the fragment. […]
# The fragments generated were cloned into the pGL4 vector to create plasmids f1800, f1000, and f500, which were each sequenced to confirm their identity. These plasmids were then transiently transfected into FHs cells as described below, and luciferase activity was analyzed 30 hours after transfection following the manufacturer's instructions (Promega). […]
# Transfections of FHs cells for luciferase activity: The normal human small intestine FHs cells were cultured in 10% DMEM/F12 supplemented with 1× Glutamax, 1× Penicillin/Streptomyxin, and 30 ng/ml EGF and seeded at 1×10^5 per well in a 12-well plate the day before transfection. […] The lysate was spun down and 10 μl of the supernatant was used for luciferase assay on POLARstar Omega plate reader (BMG LABTECH).
# CHRNA7 and CHRFAM7A = settings: undifferentiated human THP1 cells and human macrophages; cited from earlier work
substance,measurement,setting,value
lipopolysaccharide [LPS],CHRFAM7A gene expression by q-PCR,"CHRFAM7A gene expression; FHs cells, 100 ng/ml LPS, 3 hr",increases
same,relative expression of CHRFAM7A over CHRNA7,"CHRFAM7A gene expression; HCT116T, KM20L and T84 cells, LPS",unchanged
same,change of CHRFAM7A gene expression,"CHRFAM7A gene expression; KM12 and T84 cells, 100 ng/ml LPS",decreased
same,increase of CHRFAM7A gene expression,"CHRFAM7A gene expression; epithelial cells, 100 ng/ml LPS, 3 hour treatment",~1000 fold
same,increase of relative expression of CHRFAM7A over CHRNA7,"CHRFAM7A gene expression; gut epithelial cells, depending on the cell line, LPS",2-200 fold
same,increase in CHRNA7 gene expression,"CHRNA7 gene expression; CaCo2, KM12, KM20, SW, Colo205 cells, 100 ng LPS",less than two-fold
same,decrease in CHRNA7 gene expression,"CHRNA7 gene expression; FHs and T84 cells, 100 ng LPS",30%
same,effect on CHRNA7 gene expression,"CHRNA7 gene expression; epithelial cells, 100 ng/ml LPS",little to no effect; also recorded: little effect
same,ratio of CHRFAM7A to CHRNA7 gene expression,[1],unaffected; also recorded: both genes respond equally
same,luciferase signal of CHRFAM7A 5'UTR fragments,CHRFAM7A promoter [2],decreased; also recorded: inhibited
same,luciferase activity profile of CHRFAM7A UTR fragments,CHRFAM7A promoter [3],very similar profile
same,effect on CHRNA7 and CHRFAM7A,CHRNA7 and CHRFAM7A,inhibits
